Reference: the supplement of paper PMC10307832

How the values were obtained:
Experiment in all cases: relative viability (nuclei count vs DMSO), 5 days (fraction); higher = more cells survive
Dinaciclib + Bortezomib = compound: CCc1cnn2c(NCc3ccc[n+]([O-])c3)cc(N3CCCC[C@H]3CCO)nc12 [Dinaciclib] + CC(C)C[C@H](NC(=O)[C@H](Cc1ccccc1)NC(=O)c1cnccn1)B(O)O [Bortezomib] (partner 0.002 µM)
How it was run: (§1)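 Relative viability equals treated-well nuclei counts divided by vehicle-well nuclei counts. Counts came from 4× images of lung cancer cell lines grown in 1536-well plates for 5 days after pin-tool dosing on the day after seeding. Dosing used one drug alone or a fixed anchor-drug dose plus five library-drug doses (not always all listed) in √10 steps, and values are medians of duplicate plates.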

Dinaciclib + Linsitinib = compound: CCc1cnn2c(NCc3ccc[n+]([O-])c3)cc(N3CCCC[C@H]3CCO)nc12 [Dinaciclib] + C[C@]1(O)C[C@@H](c2nc(-c3ccc4ccc(-c5ccccc5)nc4c3)c3c(N)nccn32)C1 [Linsitinib] (partner 1 µM)
How it was run: as §1

Dinaciclib + Alpelisib = compound: CCc1cnn2c(NCc3ccc[n+]([O-])c3)cc(N3CCCC[C@H]3CCO)nc12 [Dinaciclib] + Cc1nc(NC(=O)N2CCC[C@H]2C(N)=O)sc1-c1ccnc(C(C)(C)C(F)(F)F)c1 [Alpelisib] (partner 2 µM)
How it was run: as §1

Dinaciclib + Crizotinib = compound: CCc1cnn2c(NCc3ccc[n+]([O-])c3)cc(N3CCCC[C@H]3CCO)nc12 [Dinaciclib] + C[C@@H](Oc1cc(-c2cnn(C3CCNCC3)c2)cnc1N)c1c(Cl)ccc(F)c1Cl [Crizotinib] (partner 1 µM)
How it was run: as §1

Dinaciclib + Pictilisib = compound: CCc1cnn2c(NCc3ccc[n+]([O-])c3)cc(N3CCCC[C@H]3CCO)nc12 [Dinaciclib] + CS(=O)(=O)N1CCN(Cc2cc3nc(-c4cccc5[nH]ncc45)nc(N4CCOCC4)c3s2)CC1 [Pictilisib] (partner 1 µM)
How it was run: as §1

Cell Line | relative viability (Dinaciclib + Bortezomib; first compound 0.009487 µM) | relative viability (Dinaciclib + Bortezomib; first compound 0.03 µM) | relative viability (Dinaciclib + Bortezomib; first compound 0.09487 µM) | relative viability (Dinaciclib + Bortezomib; first compound 0.3 µM) | relative viability (Dinaciclib + Linsitinib; first compound 0.009487 µM) | relative viability (Dinaciclib + Linsitinib; first compound 0.03 µM) | relative viability (Dinaciclib + Linsitinib; first compound 0.09487 µM) | relative viability (Dinaciclib + Linsitinib; first compound 0.3 µM) | relative viability (Dinaciclib + Alpelisib; first compound 0.009487 µM) | relative viability (Dinaciclib + Alpelisib; first compound 0.03 µM) | relative viability (Dinaciclib + Alpelisib; first compound 0.09487 µM) | relative viability (Dinaciclib + Alpelisib; first compound 0.3 µM) | relative viability (Dinaciclib + Crizotinib; first compound 0.009487 µM) | relative viability (Dinaciclib + Crizotinib; first compound 0.03 µM) | relative viability (Dinaciclib + Crizotinib; first compound 0.09487 µM) | relative viability (Dinaciclib + Crizotinib; first compound 0.3 µM) | relative viability (Dinaciclib + Pictilisib; first compound 0.009487 µM) | relative viability (Dinaciclib + Pictilisib; first compound 0.03 µM) | relative viability (Dinaciclib + Pictilisib; first compound 0.09487 µM) | relative viability (Dinaciclib + Pictilisib; first compound 0.3 µM)
201T | 1.15 | 0.718 | 0.321 | 0.281 | 1.11 | 1 | 0.362 | 0.368 | 1.11 | 0.829 | 0.288 | 0.284 | 0.938 | 0.739 | 0.265 | 0.313 | 0.714 | 0.372 | 0.308 | 0.265
A549 |  |  |  |  | 0.561 | 0.165 | 0.0454 | 0.0453 | 0.686 | 0.0411 | 0.0487 | 0.0518 | 0.724 | 0.365 | 0.0408 | 0.05 | 0.375 | 0.0566 | 0.0629 | 0.0604
A-427 | 0.969 | 0.487 | 0.0789 | 0.0623 | 1.09 | 0.512 | 0.0865 | 0.0756 | 1.11 | 0.138 | 0.0763 | 0.067 | 0.72 | 0.12 | 0.057 | 0.0481 | 0.564 | 0.0973 | 0.0666 | 0.065
ABC-1 | 0.231 | 0.179 | 0.167 | 0.157 | 0.665 | 0.278 | 0.166 | 0.126 | 0.726 | 0.342 | 0.194 | 0.172 | 1.16 | 0.178 | 0.11 | 0.0832 | 0.658 | 0.157 | 0.163 | 0.136
BEN | 0.817 | 0.497 | 0.159 | 0.247 | 1.01 | 0.68 | 0.216 | 0.21 | 1.24 | 0.517 | 0.207 | 0.236 | 1 | 0.512 | 0.18 | 0.215 | 0.621 | 0.388 | 0.173 | 0.191
CAL-12T | 0.484 | 0.203 | 0.142 | 0.127 | 0.452 | 0.175 | 0.112 | 0.145 | 0.443 | 0.128 | 0.0835 | 0.115 | 0.503 | 0.0856 | 0.0861 | 0.103 | 0.201 | 0.105 | 0.122 | 0.116
COR-L23 | 0.646 | 0.0952 | 0.0792 | 0.0558 | 0.736 | 0.0901 | 0.0662 | 0.0681 | 0.637 | 0.0835 | 0.0694 | 0.0603 | 0.456 | 0.0842 | 0.0684 | 0.0575 | 0.414 | 0.0756 | 0.0621 | 0.0547
COR-L 105 | 0.61 | 0.192 | 0.219 | 0.212 | 0.55 | 0.239 | 0.245 | 0.249 | 0.575 | 0.35 | 0.234 | 0.187 | 0.923 | 0.192 | 0.171 | 0.189 | 0.306 | 0.23 | 0.224 | 0.25
ChaGo-K-1 | 0.637 | 0.222 | 0.178 | 0.187 |  |  |  |  |  |  |  |  | 0.699 | 0.229 | 0.224 | 0.214 | 0.321 | 0.213 | 0.175 | 0.161
EKVX | 1.02 | 0.451 | 0.109 | 0.149 | 0.961 | 0.51 | 0.0946 | 0.137 | 0.862 | 0.449 | 0.11 | 0.122 | 0.749 | 0.454 | 0.103 | 0.118 | 0.407 | 0.227 | 0.12 | 0.113
EMC-BAC-2 | 0.978 | 0.779 | 0.137 | 0.148 | 0.868 | 0.235 | 0.14 | 0.161 | 0.765 | 0.227 | 0.113 | 0.112 | 0.71 | 0.187 | 0.146 | 0.15 | 0.621 | 0.303 | 0.136 | 0.15
EPLC-272H | 0.89 | 0.57 | 0.0541 | 0.0535 | 1.29 | 0.665 | 0.33 | 0.0559 | 0.828 | 0.542 | 0.0754 | 0.0887 | 0.853 | 0.484 | 0.0554 | 0.0387 | 0.218 | 0.0536 | 0.0465 | 0.046
H3255 | 0.734 | 0.227 | 0.15 | 0.169 | 1.09 | 0.493 | 0.177 | 0.186 | 0.716 | 0.352 | 0.15 | 0.141 | 0.842 | 0.194 | 0.173 | 0.197 | 0.415 | 0.261 | 0.164 | 0.182
HARA | 0.888 | 0.0756 | 0.0605 | 0.0587 | 0.758 | 0.0716 | 0.0363 | 0.038 | 0.72 | 0.0726 | 0.0663 | 0.0442 | 0.717 | 0.103 | 0.0536 | 0.0685 | 0.529 | 0.0709 | 0.0524 | 0.031
HCC-15 | 0.628 | 0.106 | 0.0945 | 0.0993 | 0.76 | 0.171 | 0.113 | 0.101 | 0.863 | 0.169 | 0.0978 | 0.0964 | 0.618 | 0.098 | 0.0953 | 0.0947 | 0.637 | 0.117 | 0.0949 | 0.11
HCC-44 | 0.883 | 0.115 | 0.106 | 0.102 | 0.461 | 0.119 | 0.122 | 0.103 | 0.677 | 0.095 | 0.133 | 0.118 | 0.741 | 0.133 | 0.118 | 0.112 | 0.711 | 0.248 | 0.122 | 0.129
